This experiment concerns scalp SULT1A1 enzyme. As to conditions: oral, 20 subjects.

SMILES strings stand for the structures.

For `O=C([O-])O.[Na+]` [sodium bicarbonate], the “subjects in whom the scalp SULT1A1 enzyme was induced” value (dosages exceeding 1,000 mg q.d.) came to 18%. Moreover, the “induction of the scalp SULT1A1 enzyme” value (dosages less than 500 mg q.d.) is listed as “did induce”.

The values above are taken from patent US12377098B2, “Compositions and methods for the treatment of alopecia” (Follea International, priority 2023, dated 2025).
